According to article PMC12592420, “A mismatch in enzyme-redox partnerships underlies divergent cytochrome P450 activities between human hepatocytes and microsomes” (Communications Biology, 2025):
Several values for one entry are separate records, joined by “and”; a condition that tells them apart may be missing. Equal values may be shown once.

Key:
[1] = Metabolism of savolitinib in lysed hepatocytes + NADPH; type: in vitro ADME, human; conditions: savolitinib 1 µM, HH lysate + NADPH
Description: HH in Leibovitz buffer were centrifuged at 11,250 × g for 5 min to pellet the cells. Taking care not to disturb the pellet, all the media was removed using a pipette. Ice-cold water was added and the mixture vortex-mixed to resuspend the cells and stored at −80 °C for 5 min followed by sonication for 10 min to lyse the cells. The resuspended lysate final volume was equivalent to a final cell concentration of 1 million cells/mL (the same concentration used for intact cells experiments) in […] phosphate buffer pH 7.4 and NADPH (final 1 mM). After pre-incubating for 5 min at 37 °C, the reaction (metabolism of savolitinib) in the lysate was initiated by adding savolitinib (final 1 µM). […] Authentic standards (M2 and M4) were spiked into hepatocyte lysate and used to construct standard curves. The acetonitrile/hepatocyte lysate mixtures were centrifuged at 3000 × g for 10 min and 50 µl of the supernatant was mixed with 300 µl of water and 3 µL was injected into the mass spectrometer for analysis by multiple reaction monitoring.

[2] = Incubations in HLM + NADPH from the same donor pool as S9; type: in vitro ADME, human; conditions: for microsomal CLint at 1 µM: human, human liver microsomes, pH 7.4, Midazolam CLint
Excerpt: Liver S9 (lot 1810001, pool of 50, Xenotech) and HLM (pool of 50, lot 1810003, Xenotech) from the same pool of donors were purchased from Xenotech.

recombinant CYP3A4-POR = target: T1, recombinant CYP3A4-POR (Homo sapiens, UniProt P08684); assay: Savolitinib incubation with recombinant CYP3A4-POR Supersomes; type: in vitro ADME; conditions: CYP3A4 (CYP13A4 [sic]), savolitinib 1 µM, 1 h (Fig. 2c)
T1 construct: purchased 456202
Description: For detailed comparisons between recombinant CYP1A2 and CYP3A4 (Fig. 2B, C), Supersomes were used (CYP1A2, catalogue number 456203, CYP3A4, catalogue number 456202). […] The concentration of savolitinib metabolites M2 and M4 formed were determined from standard curves obtained by spiking the appropriate concentrations of M2 and M4 into recombinant enzymes (in the absence of NADPH) and processing in the same way as the samples.

[3] = Savolitinib metabolite (M2, M4) formation in NADPH-HLM (with BSA or cytosol where stated); type: in vitro ADME, human; parameters: [M4] / M2 average / M4 average: unit not given here; conditions: 60min; for M4 average: average of duplicate (Suppl. Fig. 1); for [M4]: savolitinib 1 µM, single measurements (Suppl. Fig. 1)
[4] = Free fraction in HLM incubation, equilibrium dialysis; type: in vitro ADME, human; conditions: fraction unbound, measured or estimated by in silico models of Fuinc
rat hepatocytes = assay: Free fraction in rat hepatocytes as surrogate for HH, equilibrium dialysis; type: in vitro ADME; conditions: fraction unbound, measured or estimated by in silico models of Fuinc
[5] = CLint in NADH-supplemented human liver microsomes; conditions: for microsomal CLint at 1 µM / CLint scaled at 1 µM: human, microsomes
Description: (§1) Calculation and scaling of CLint,u was done using the equation below and 45 mg of microsomal protein per gram of liver. HLMCLint,u=ln2/x1/t1/2(min)xmLincubation/mgmicrosomalproteinx45mgmicrosomalprotein/gliverx21gliver/kg/Fuinc

[6] = Midazolam CLint in HLM with NADPH:NADH (1:1); type: in vitro ADME, human; conditions: cofactor NADH:NADPH (1:1) (Fig. 5b)
[7] = target: T2, recombinant human CYP3A4-POR containing cytochrome b5 (Homo sapiens, UniProt P08684); assay: Midazolam CLint by canonical recombinant CYP3A4-POR with cytochrome b5, with and without gefitinib; type: in vitro ADME; conditions: CYP3A4_POR, NADPH, listed as Mid
T2 construct: purchased BioIVT (named in b64 for the custom bactosomes); host or cells: bactosomes (E. coli is stated for the panel, not for this product)
Description: (§2) As the reaction-rate was much higher, aliquots were taken at 0, 1, 2, 3, 4 and 5 min.

in vitro [8] = conditions: human, Caco-2
[9] = target: T3, recombinant human CYP3A4-Cytb5R containing cytochrome b5 (Homo sapiens, UniProt P08684); assay: Midazolam CLint by non-canonical recombinant CYP3A4-Cytb5R with cytochrome b5, with and without gefitinib; type: in vitro ADME; conditions: CYP3A4_Cytb5R, NADPH, listed as Mid
T3 construct: purchased BioIVT (custom synthesis) CE00001(CYP3A4), batch CPD034-3A4; host or cells: bactosomes
Description: As commercial recombinant human CYPs co-express the individual CYP and reductase with an option to include cytochrome b5. A custom synthesis co-expressing CYP3A4 or CYP1A2 and Cytb5R plus cytochrome b5 was, therefore, ordered from BioIVT and the bactosomes were compared with canonical CYP-POR enzymes plus cytochrome b5.
as §2

in vitro [10] = conditions: human, hepatocytes
Description: Cryopreserved HH prepared from a mixed-gender pool of twenty donors (product X008000, lot EEO, BIOIVT), ten-donors (product S01205, lot MTJ, BIOIVT), ten donors (product S01205 lot LYB, BIOIVT) were utilised in the experiments. Cryopreserved HH were rapidly thawed in a water bath set at 37 °C and added to Leibovitz media that had been pre-warmed in the water bath. The suspension of cells was mixed gently and centrifuged at 40 × g for 4 min at room temperature. Excess media was removed, and the cells were re-suspended in 5 mL of fresh Leibovitz media. The cells were counted using an automated cell counter (Cellometer).

[11] = CLint in NADPH-supplemented human liver microsomes; conditions: for microsomal CLint at 1 µM / CLint scaled at 1 µM: human, microsomes
Description: as §1

[12] = Incubations in human liver S9 + NADPH (same donor pool as HLM); type: in vitro ADME; conditions: human, human liver S9, pH 7.4, Midazolam CLint
[13] = HLM (same donors as S9) + NADPH + 5 uM GEF (Fig. 6b)
[14] = HLM (same donors as S9) + NADPH, midazolam 1 µM alone (Fig. 6b)

T1 sequence (P08684 whole entry): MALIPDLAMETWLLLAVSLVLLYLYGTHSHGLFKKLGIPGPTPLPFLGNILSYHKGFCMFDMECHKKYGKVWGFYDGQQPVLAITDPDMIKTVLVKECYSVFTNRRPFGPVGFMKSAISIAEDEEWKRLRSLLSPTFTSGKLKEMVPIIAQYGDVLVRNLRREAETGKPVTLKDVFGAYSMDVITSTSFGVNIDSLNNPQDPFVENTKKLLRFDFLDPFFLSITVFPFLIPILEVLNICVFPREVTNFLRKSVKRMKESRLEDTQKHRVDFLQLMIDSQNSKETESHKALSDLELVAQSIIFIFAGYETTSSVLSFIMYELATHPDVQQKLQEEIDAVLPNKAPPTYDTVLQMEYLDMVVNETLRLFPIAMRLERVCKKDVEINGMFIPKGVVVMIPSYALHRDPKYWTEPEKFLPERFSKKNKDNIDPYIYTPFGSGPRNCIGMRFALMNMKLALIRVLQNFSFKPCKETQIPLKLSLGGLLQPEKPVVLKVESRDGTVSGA
T3 sequence (P08684 whole entry): as above
T2 sequence (P08684 whole entry): as above

In the case of `C[C@@H](c1ccc(N)nc1)n1nnc2ncc(-c3cnn(C)c3)nc21` [Compound M4], the “[M4]” value ([1]; 0 min (Fig. 6cii)) is reported as 2.8 nM and 3 nM and 2.75 nM, the “[M4]” value ([1]; 5 min (Fig. 6cii)) is reported as 3.1 nM and 3.9 nM and 3.3 nM and the “[M4]” value ([1]; 10 min (Fig. 6cii)) is reported as 4.2 nM and 5.25 nM and 4 nM. The “[M4]” value ([1]; 20 min (Fig. 6cii)) was 4.6 nM and 6.95 nM and 4.95 nM, the “[M4]” value ([1]; 40 min (Fig. 6cii)) was 6.1 nM and 9.2 nM and 6.8 nM and the “[M4]” value ([1]; 60 min (Fig. 6cii)) was 7.5 nM and 10.55 nM and 8.1 nM. For the same compound, the “[M4]” value ([2]; HLM (same donors as S9) + NADPH, savolitinib 1 µM, 1 h (Fig. 6aii)) was 59.25 nM and 71.3 nM and 48.9 nM, the “[M4] nM formed by recombinant CYPs” value (recombinant CYP3A4-POR) was 208.8 nM and 197.55 nM and 216.7 nM and the M4 average ([3]; cytosol 0 mg/mL) was 45.7 and 50.45 and 48.25. For the same compound, the M4 average ([3]; cytosol 4 mg/mL) was 17.35 and 19.85 and 21.35, the M4 average ([3]; cytosol 10 mg/mL) was 7.4 and 8.2 and 10.05 and the [M4] ([3]; cytosol 0 mg/mL) was 45.1 and 46.3 and 50.7 and 50.2 and 47.8 and 48.7. For the same compound, the [M4] ([3]; cytosol 4 mg/mL) was 17.9 and 16.8 and 19.5 and 20.2 and 21.9 and 20.8 and the [M4] ([3]; cytosol 10 mg/mL) was 7.5 and 7.3 and 8.2 and 10.2 and 9.9.
In the case of `Cc1ncc2n1-c1ccc(Cl)cc1C(c1ccccc1F)=NC2` [Midazolam], the fu_HLM [4] is reported as 0.454, the fu_ratHH (rat hepatocytes) is reported as 0.543 and the “Midazolam CLint” value ([5]; HLM + NADH, control without gefitinib (Fig. 3d)) is reported as 23.9 µL/min/mg and 21.4 µL/min/mg. For the same compound, the “Scaled midazolam CLint,u” value ([5]; HLM, cofactor NADH (Fig. 5b)) was 248.867 mL/min/kg and 261.398 mL/min/kg, the microsomal CLint at 1 µM ([5]; pH 7.4, HLM_NADH CLint, 1 µM, single determination, Fig. 4a,d) was 103 µL/min/mg and the microsomal CLint at 1 µM ([5]; pH 7.4, Midazolam CLint, HLM + NADH, control without gefitinib (Fig. 3d)) was 14.7 µL/min/mg. The CLint scaled at 1 µM ([5]; pH 7.4, NADH_HLM_scaled_CLint,u, Fig. 4a,d) was 213 mL/min/kg, the CLint scaled at 1 µM ([5]; pH 7.4, Scaled midazolam CLint,u, HLM, cofactor NADH (Fig. 5b)) was 247 mL/min/kg and the “Scaled midazolam CLint,u” value [6] was 761.569 mL/min/kg and 740.511 mL/min/kg. For the same compound, the CLint scaled at 1 µM ([6]; human, human liver microsomes, pH 7.4, Scaled midazolam CLint,u) was 762 mL/min/kg, the “Midazolam CLint” value ([7]; Mid + GEF 5 µM (Fig. 5e)) was 3292.07 µL/min/nmol and 3281.83 µL/min/nmol and 2734.43 µL/min/nmol and the “Midazolam CLint” value ([7]; Mid alone (Fig. 5e)) was 4061.76 µL/min/nmol and 4262.77 µL/min/nmol and 3511.63 µL/min/nmol. For the same compound, the Papp (in vitro [8]) was 47.5 ×10⁻⁶ cm/s, the “Midazolam CLint” value ([9]; Mid + GEF 5 µM (Fig. 5f)) was 19.6 µL/min/nmol and 13.9 µL/min/nmol and 18.8 µL/min/nmol and the “Midazolam CLint” value ([9]; Mid alone (Fig. 5f)) was 6.9 µL/min/nmol and 5.5 µL/min/nmol and 5.1 µL/min/nmol. The CLint scaled (in vitro [10]; HH_scaled_CLint,u) was 90.5 mL/min/kg, the CLint scaled (in vitro [10]; Midazolam scaled CLint,u) was 104 mL/min/kg and the CLint scaled (in vitro [10]; Scaled HH CLint,u) was 62.8 mL/min/kg. The CLint scaled (in vitro [10]; Scaled HH CLint,u average) was 51.2 mL/min/kg, the “Midazolam CLint” value [2, 13] was 392.5 µL/min/mg and 377.3 µL/min/mg and the “Percentage of midazolam alone” value [2, 13] was 121.498% and 119.228% and 122.262%. The “Midazolam CLint” value [2, 14] was 329.2 µL/min/mg, the microsomal CLint at 1 µM [2, 13] was 336 µL/min/mg and the microsomal CLint at 1 µM [2, 14] was 276 µL/min/mg. The “NADPH_HLM_scaled_CLint,u” value ([11]; Fig. 4a,d) was 614.71 mL/min/kg, the “Midazolam CLint” value ([11]; HLM + NADPH, control without gefitinib (Fig. 3d)) was 265.8 µL/min/mg and 269.7 µL/min/mg and the “Midazolam scaled CLint,u” value ([11]; HLM + NADPH, no gefitinib (Fig. 3a)) was 531.926 mL/min/kg and 593.803 mL/min/kg. For the same compound, the “Scaled midazolam CLint,u” value ([11]; HLM, cofactor NADPH (Fig. 5b)) was 703.964 mL/min/kg and 722.238 mL/min/kg, the “Scaled HLM CLint,u” value ([11]; NADPH-HLM, individual determinations 1-3, Fig. 1) was 632.553 mL/min/kg and 670.23 mL/min/kg and the microsomal CLint at 1 µM ([11]; pH 7.4, HLM_NADPH CLint, 1 µM, single determination, Fig. 4a,d) was 295 µL/min/mg. It also gave a microsomal CLint at 1 µM ([11]; pH 7.4, Midazolam CLint, HLM + NADPH, control without gefitinib (Fig. 3d)) of 288 µL/min/mg, a CLint scaled at 1 µM ([11]; pH 7.4, Midazolam scaled CLint,u, HLM + NADPH, no gefitinib (Fig. 3a)) of 619 mL/min/kg and a CLint scaled at 1 µM ([11]; pH 7.4, Scaled HLM CLint,u average, NADPH-HLM, average, Fig. 1) of 649 mL/min/kg. It also gave a CLint scaled at 1 µM ([11]; pH 7.4, Scaled HLM CLint,u, NADPH-HLM, individual determinations 1-3, Fig. 1) of 643 mL/min/kg, a CLint scaled at 1 µM ([11]; pH 7.4, Scaled midazolam CLint,u, HLM, cofactor NADPH (Fig. 5b)) of 693 mL/min/kg and a microsomal CLint at 1 µM ([12]; S9 + NADPH + 5 uM GEF (Fig. 6b)) of 150 µL/min/mg. It also gave a microsomal CLint at 1 µM ([12]; S9 + NADPH, midazolam 1 µM alone (Fig. 6b)) of 77.2 µL/min/mg.
